Columns and labels:
[1] = tested on: angiogenesis in Matrigel plugs; experiment: in vivo assay of daily dosages on angiogenesis (Matrigel plug, bFGF); design: species or system C57B1 female mice; details: 3 mg/kg and 30 mg/kg daily s.c., seven days
Experimental: The injected Matrigel™ rapidly formed a gel. On the same a day as the Matrigel™ injection, daily subcutaneous injections of Compound 3 around the Matrigel™ plug were initiated. Seven days post Matrigel™ injection, Matrigel™ plugs were excised and histology was performed.
The concentrations of the daily dosages as well as the coinciding initial Matrigel™ plug compositions are provided below in TABLE VI.

[2] = tested on: angiogenesis in the Matrigel/bFGF gels; experiment: in vivo assay of a continuous dosage on angiogenesis (minipump, Matrigel/bFGF); design: species or system C57B1 female mice
Experimental: Minipumps filled with vehicle (50 mM Hepes) were also implanted at this time. Twenty-four hours later, mice were each injected subcutaneously with 0.5 mL Matrigel™ and the 150 ng/mL of the angiogenic factor, basic FGF (bFGF). Thirteen days post Matrigel™/bFGF injection, the gels were recovered, fixed in formalin and sections were stained with Trichrome-Masson stain.

[3] = tested on: spinal cord organotypic cultures; details: cited from earlier work
[4] = tested on: dynorphin-induced spinal cord injury; details: co-administered with dynorphin A; by 24-hour post-injection; cited from earlier work
LNCaP tumors [5] = experiment: in vivo cancer assay, LNCaP model, intratumoral drug delivery; design: species or system Ncr nude male mice
Experimental: Ncr nude male mice, age 5 to 6 weeks, were injected in the right flank with 10^7 LNCaP cells in Matrigel™ (0.1 ml total injection volume). When the tumors reached a predetermined size (50 to 60 mm^3) mice.were randomly placed into treatment groups of 6 to 8 mice each. […] Controls received 50 μl of 50 mM HEPES intratumorally daily. Tumors were measured twice a week.
(§1) Response to treatment was monitored in two ways. First, mean tumor volume for each group was presented as tumor:control ratio (% T/C) and these values were compared at one point in time. Second, tumor volume versus time was monitored.

alcohol-preferring rats = details: rat, in vivo; cited from earlier work
MPTP lesioned mice = details: cited from earlier work
[6] = tested on: Dorsal root ganglia-Schwann cell co-cultures; experiment: in vitro myelination in dorsal root ganglia-Schwann cell co-cultures; assay type: cell-based
Excerpt: The inventors hypothesized that NAALADase may play a role in signaling myelin formation and inhibition of NAALADase may facilitate myelination. To test this hypothesis, the inventors examined the effects of several NAALADase inhibitors in a well established in vitro model system of myelination. Dorsal root ganglia-Schwann cell co-cultures were established as previously described (Einheber et al., J. Cell. Biol., Vol. 123, p. 1223). Following 7 days in co-culture, myelination was initiated following the addition of serum and ascorbic acid with various doses of NAALADase inhibitors (1 nM to 10 μM) or progesterone (20 nM; positive control). The extent of myelination was examined between days 14-21 using immunocytochemical staining for myelin basic protein (MBP), a known myelin marker.

Dunning G tumors = experiment: in vivo cancer assay, Dunning G model, subcutaneous drug delivery; design: species or system Male Copenhagen syngenic rats
Experimental: Male Copenhagen syngenic rats, age 8 to 10 weeks, were injected in both flanks with 10^7 Dunning G cells. […] Controls received 50 mM HEPES s.c. daily. Tumors were measured twice a week.
as §1

[7] = tested on: cocaine-induced sensitization; experiment: in vivo behavioral sensitization to cocaine; design: species or system Male Sprague-Dawley rats
Experimental: NAALADase hydrolyzes the abundant neuropeptide NAAG to liberate glutamate (GLU). The inventors hypothesized that inhibition of NAALADase could attenuate sensitization by preventing this source of GLU. […] Male Sprague-Dawley rats received home cage injections of cocaine (20 mg/kg/day×5 days; i.p.) or sale (1.0 ml/kg). […] Cocaine (20 mg/kg)-induced locomotor activity was assessed 3 days later. […]

[8] = tested on: stroke-induced extracellular glutamate increases; details: rats; cited from earlier work
[9] = tested on: acetic acid (0.6%) induced writhing; experiment: acetic acid model of pain (writhing); assay type: in vivo, mice; details: pretreated
Excerpt: (§2) One source of neuronal glutamate is thought to derive from the abundant neuropeptide NAAG which is hydrolyzed by NAALADase to liberate free glutamate. The inventors hypothesized that inhibition of NAALADase could limit pain by preventing this source of glutamate. To test this hypothesis, the inventors examined the possible antinocipetive effects of several NAALADase inhibitors in the formalin-, acetic acid- and chronic constrictive injury (CCI; “Bennett model”) models of pain. […] On day 7, 5% formalin was injected into the dorsum of the rat's hindpaw.

LNCaP cells = details: as the concentration increased; cited from earlier work
[10] = tested on: hyperalgesia following sciatic nerve constriction; experiment: chronic constrictive injury (CCI) model of pain; assay type: in vivo, rats
Excerpt: as §2
Sciatic nerve ligation, consisting of 4 ligatures being tied loosely around the sciatic nerve at 1 mm intervals proximal to the nerve trifurcation, was performed on rats. […] Animals were habituated to the Hargreaves apparatus and the infrared heat source directed onto the […] surface of the hindpaw and the time taken for the animal to withdraw its paw noted. The difference score (between the latency of the response for the paw on the operated side versus the control side) was determined. […] Normal (unoperated) rats had approximately equal latencies for both paws. This effect was significant starting at 11 days of drug treatment and persisted through to the end of the study (for 21 days of daily dosing).

[11] = tested on: nicotine self-administration in rats; details: rat, in vivo; cited from earlier work
LNCaP tumors [12] = experiment: in vivo cancer assay, LNCaP model, subcutaneous drug delivery; design: species or system Ncr nude male mice
Experimental: Ncr nude male mice, age 5 to 6 weeks, were injected in the right flank with 5×10^6 LNCaP cells in Matrigel™ (0.1 ml total injection volume). […] Controls received 50 mM HEPES s.c. daily. Once tumors were palpable they were measured twice a week.
as §1

[13] = tested on: formalin-induced flinching behavior; experiment: formalin model of pain; assay type: in vivo, rats; details: 50 mg/kg i.p. daily for 7 days
Excerpt: as §2

[14] = tested on: cryolesion of the sciatic nerve; details: sciatic nerves in mice; cited from earlier work
[15] = 50 mg/kg i.p. daily starting 10 days after surgery, day 18

O=C(O)CCC(CP(=O)(O)O)C(=O)O (centres unmarked) [Compound 3, 2-(phosphonomethyl)-pentanedioic acid]
blood vessels or angiogenesis in the Matrigel plugs [1]: decrease in blood vessels or angiogenesis | angiogenic response ([2]; 1 μg/day by minipump): strong angiogenic response | angiogenesis in the Matrigel/bFGF gels ([2]; 10 μg/day and 100 μg/day by minipump): significantly decreased angiogenesis | protection against THA-induced toxicity [3]: dose-dependent protection | motor scores [4]: significant improvement | Tumor volume (LNCaP tumors [5]; after 42 days of treatment, intratumoral 0.025 μg/day): 465.7±176 mm^3 | Optimal % T/C (LNCaP tumors [5]; intratumoral 0.025 μg/day): 42% | Regressions (LNCaP tumors [5]; intratumoral 0.025 μg/day): 1/7 | Optimal % T/C (LNCaP tumors [5]; intratumoral 0.25 μg/day): 51% | Regressions (LNCaP tumors [5]; intratumoral 0.25 μg/day): 1/7 | Optimal % T/C (LNCaP tumors [5]; intratumoral 2.5 μg/day): 45% | Regressions (LNCaP tumors [5]; intratumoral 2.5 μg/day): 0/7 | Optimal % T/C (LNCaP tumors [5]; intratumoral 25.0 μg/day): 76% | Regressions (LNCaP tumors [5]; intratumoral 25.0 μg/day): 0/7 | tumor growth (LNCaP tumors [5]; intratumoral 0.025, 0.25 and 2.5 μg/day): slowed tumor growth substantially | body weights or 24 hour water intakes (alcohol-preferring rats): without affecting | ethanol consumption (alcohol-preferring rats): significantly reduced | TH-stained dopaminergic neurons (MPTP lesioned mice): significant recovery | immunostaining of MBP ([6]; 1 nM, two week treatment): significant increase | extent of myelination vs. maximal doses of ascorbic acid and progesterone ([6]; high dose, 1 μM): greater extent of myelination | tumor size, % of controls (Dunning G tumors; 10 mg/kg s.c. daily): 38% | tumor size, % of controls (Dunning G tumors; 30 mg/kg s.c. daily): 22% | effect on tumor growth (Dunning G tumors; 1 and 3 mg/kg s.c. daily): no effect on tumor growth | enhancement of cocaine (20 mg/kg)-induced locomotor activity (sensitization) ([7]; 10 and 50 mg/kg, 15 minutes prior to cocaine injections x 5 days, assessed 3 days later): significantly reduced | basal locomotor activity or the response to saline ([7]; Compound 3 on its own): did not alter | concurrent glutamate changes in the parietal cortex [8]: completely prevented | stroke-induced extracellular glutamate increases in the striatum [8]: significantly attenuated | acetic acid (0.6%) induced writhing vs. vehicle control [9]: significantly attenuated | LNCaP cell proliferation (LNCaP cells): decreased significantly | difference scores (thermal pain response) [10, 15]: −0.2±1.9 | pain attenuation vs. operated vehicle group [10, 15]: 98% | difference scores between the two paws vs. vehicle-treated controls ([10]; 50 mg/kg i.p. daily starting 10 days post surgery, significant starting at 11 days, through 21 days of dosing): dramatically normalized | cumulative food intakes [11]: reduced | nicotine self-administration [11]: reduced | tumor growth, % of controls (LNCaP tumors [12]; 10 mg/kg s.c. daily, day 86): 24% | effect on tumor growth (LNCaP tumors [12]; 1, 3 and 30 mg/kg s.c. daily): no effect on tumor growth | effect compared with acute pretreatment with morphine (5 mg/kg) [13]: more robust | flinching behavior, early phase ([13]; 5% formalin on day 7): 2.5±3 | flinching behavior, late phase ([13]; 5% formalin on day 7): 0.5±0.58 | myelin thickness [14]: increase | myelinated axon number [14]: increase
